Common to all, as to format: cell-based
The test system of assay [1] is Wnt activity (Sp5-Luc reporter, SW480 colon carcinoma cells). The assay is described as follows: Sp5-Luc reporter gene screening assay for Wnt activity in SW480 cells. The conditions noted are these: Homo sapiens; for EC50: luminescence, overnight incubation; for inhibition at 10 µM: given for EC50 >10 μM, read-out: percent inhibition at 10 μM. The source says: The screening assay for Wnt activity is described as follows. Reporter cell lines can be generated by stably transducing cancer cell lines (e.g., colon cancer) or primary cells (e.g., IEC-6 intestinal cells) with a lentiviral construct that includes a Wnt-responsive promoter driving expression of the firefly luciferase gene.
SW480 colon carcinoma cells were transduced with a lentiviral vector expressing luciferase with a human Sp5 promoter consisting of a sequence of eight TCF/LEF binding sites. SW480 cells stably expressing the Sp5-Luc reporter gene and a hygromycin resistance gene were selected by treatment with 150 μg/mL of hygromycin for 7 days. These stably transduced SW480 cells were expanded in cell culture and used for all further screening activities. Each compound was dissolved in DMSO as a 10 mM stock and used to prepare compound source plates. Serial dilution (1:3, 10-point dose-response curves starting from 10 μM) and compound transfer was performed using the ECHO 550 (Labcyte, Sunnyvale, Calif.) into 384-well white solid bottom assay plates (Greiner Bio-One) with appropriate DMSO backfill for a final DMSO concentration of 0.1%. For Sp5-Luc reporter gene assays, the cells were plated at 4,000 cells/well in 384-well plates with medium containing 1% fetal bovine serum and incubated overnight at 37° C. and 5% CO2. Following incubation, 20 μl of BrightGlo luminescence reagent (Promega) was added to each well of the 384-well assay plates. The plates were placed on an orbital shaker for 2 min and then luminescence was quantified using the Envision (Perkin Elmer) plate reader. Readings were normalized to DMSO only treated cells, and normalized activities were utilized for EC50 calculations using the dose-response log (inhibitor) vs. response-variable slope (four parameters) nonlinear regression feature available in GraphPad Prism 5.0 (or Dotmatics). For EC50 of >10 μM, the percent inhibition at 10 μM is provided.

The subject of assay [2] is primary human fibroblasts derived from IPF patients (LL29 cells). The assay is described as follows: Inhibition of fibrotic process: αSMA staining in TGF-β1 treated LL29 fibroblasts. Particulars: Fibroblast; for EC50: 96 h, TGF-β1 20 ng/mL, 4 days, % cells positive for αSMA. The source says:
Representative compounds were screened using primary human fibroblasts (derived from IPF patients) treated with TGF-β1 to determine their ability to inhibit the fibrotic process.
Human Fibroblast Cell Culture: Primary human fibroblasts derived from IPF patients (LL29 cells) [^1Xiaoqiu Liu, et. al., “Fibrotic Lung Fibroblasts Show Blunted Inhibition by cAMP Due to Deficient cAMP Response Element-Binding Protein Phosphorylation”, Journal of Pharmacology and Experimental Therapeutics (2005), 315(2), 678-687; ^2Watts, K. L., et. al., “RhoA signaling modulates cyclin D1 expression in human lung fibroblasts; implications for idiopathic pulmonary fibrosis”, Respiratory Research (2006), 7(1), 88] were obtained from American Type Culture Collection (ATCC) and expanded in F12 medium supplemented with 15% Fetal Bovine Serum and Penicillin/Streptomycin.
Compound Screening: Each compound was dissolved in DMSO as a 10 mM stock and used to prepare compound source plates. Serial dilution (1:2, 11-point dose-response curves from […]) and compound transfer was performed using the ECHO 550 (Labcyte, Sunnyvale, Calif.) into 384-well clear bottom assay plates (Greiner Bio-One) with appropriate DMSO backfill for a final DMSO concentration of 0.1%. LL29 cells are plated at 1,500 cells/well in 80 μL/well F12 medium supplemented with 1% Fetal Bovine Serum. One hour after addition of the cells, TGF-β1 (Peprotech; 20 ng/mL) was added to the plates to induce fibrosis (ref. 1 and 2 above). Wells treated with TGF-β1 and containing DMSO were used as controls. Cells were incubated at 37° C. and 5% CO2 for 4 days. Following incubation for 4 days, SYTOX green nucleic acid stain (Life Technologies [Thermo Fisher Scientific]) was added to the wells at a final concentration of 1 μM and incubated at room temperature for 30 min. Cells were then fixed using 4% formaldehyde (Electron Microscopy Sciences), washed 3 times with PBS followed by blocking and permeabilization using 3% Bovine Serum Albumin (BSA; Sigma) and 0.3% Triton X-100 (Sigma) in PBS. Cells were then stained with antibody specific to α-smooth muscle actin (αSMA; Abcam) (ref. 1 and 2 above) in 3% Bovine Serum Albumin (BSA; Sigma) and 0.3% Triton X-100 (Sigma) in PBS, and incubated overnight at 4° C. Cells were then washed 3 times with PBS, followed by incubation with Alexa Flor-647 conjugated secondary antibody (Life Technologies [Thermo Fisher Scientific]) and DAPI at room temperature for 1 hour. Cells were then washed 3 times with PBS and plates were sealed for imaging. αSMA staining was imaged by excitation at 630 nm and emission at 665 nm and quantified using the Compartmental Analysis program on the CellInsight CX5 (Thermo Scientific). Dead or apoptotic cells were excluded from analysis based on positive SYTOX green staining. % of total cells positive for αSMA were counted in each well and normalized to the average of 11 wells treated with TGF-β1 on the same plate using Dotmatics' Studies Software. The normalized averages (fold change over untreated) of 3 replicate wells for each compound concentration were used to create dose-responses curves and EC50 values were calculated using non-linear regression curve fit in the Dotmatics' Studies Software. For EC50 of >10 μM, the percent inhibition at 10 μM is provided.

In the next assay the test system is SW480 colon cancer cells. The assay is described as follows: Cell viability assay (CellTiter-Blue) in SW480 colon cancer cells. Particulars: Homo sapiens; for EC50: 96 h, four days, CellTiter-Blue. On the procedure: Representative compounds were screened using the following assay procedure to assess the effect on cell viability as described below.
Each compound was dissolved in DMSO as a 10 mM stock and used to prepare compound source plates. Serial dilution (1:3, 8-point dose-response curves from 10 μM to 0.0045 μM) and compound transfer was performed using the ECHO 550 (Labcyte, Sunnyvale, Calif.) into 96-well clear bottom, black-walled plates (Corning-Costar).
Approximately 2×10^3 SW480 colon cancer cells were seeded into each well and allowed to incubate in the presence or absence of compound for four days at 37° C./5% CO2. Eight replicates of DMSO-treated cells served as controls and cells treated with compound were performed in duplicate.
After incubation, 20 μL of CellTiter-Blue (Promega) was added to each well allowed to incubate for approximately 3 hours. This reagent was a buffered solution which contains resazurin, metabolically active cells were able to reduce rezarurin (blue) into resorufin (pink) which was highly fluorescent. This measured fluorescence was used as a readout for cell viability.
After incubation, the plates were read at Ex 560 nm Em 590 nm (Cytation 3, BioTek). Dose-response curves were generated and EC50 concentration values were calculated using non-linear regression curve fit in the GraphPad Prism (San Diego, Calif.) or Dotmatics' Studies Software (Bishops Stortford, UK). For EC50 of >10 μM, the percent inhibition at 10 μM is provided.

As for `CS(=O)(=O)NCc1cc(F)cc(-c2nccc3[nH]c(-c4n[nH]c5ccc(-c6cncc(NC(=O)C7CCCC7)c6)nc45)cc23)c1` [Compound 498, N-(5-(3-(4-(3-Fluoro-5-(methylsulfonamidomethyl)phenyl)-1H-pyrrolo[3,2-c]pyridin-2-yl)-1H-pyrazolo[4,3-b]pyridin-5-yl)pyridin-3-yl)cyclopentanecarboxamide], the half-maximal effective concentration (EC50) in assay [1] is 1310 nM; in assay [2], > 10000 nM; in the assay on SW480 colon cancer cells, 1980 nM. In addition, the inhibition at 10 µM in assay [2] (given for EC50 >10 μM, TGF-β1, αSMA, 10 μM, read-out: percent inhibition at 10 μM) amounted to 34.8%.

As for `Cc1ccncc1-c1ccc2[nH]nc(-c3cc4c(-c5ccc(F)cc5)nccc4[nH]3)c2n1` [Compound 33, 3-(4-(4-Fluorophenyl)-1H-pyrrolo[3,2-c]pyridin-2-yl)-5-(4-methylpyridin-3-yl)-1H-pyrazolo[4,3-b]pyridine], the inhibition at 10 µM in assay [1] was 37.3%. Moreover, the EC50 in assay [1] was > 10000 nM; in assay [2], 3300 nM; with SW480 colon cancer cells it was 4470 nM.

As to `CN(C)Cc1cncc(-c2ccc3[nH]nc(-c4cc5cnccc5[nH]4)c3n2)c1` [Compound 265, 1-(5-(3-(1H-Pyrrolo[3,2-c]pyridin-2-yl)-1H-pyrazolo[4,3-b]pyridin-5-yl)pyridin-3-yl)-N,N-dimethylmethanamine], the results for the concentration for a half-maximal effect (EC50) (in assay [1]; in assay [2]; with SW480 colon cancer cells) were 1690 nM, 3120 nM and 907 nM, respectively.

On to `FC1(F)CCN(Cc2cncc(-c3ccc4[nH]nc(-c5cc6cnccc6[nH]5)c4n3)c2)C1` [Compound 278, 5-(5-((3,3-Difluoropyrrolidin-1-yl)methyl)pyridin-3-yl)-3-(1H-pyrrolo[3,2-c]pyridin-2-yl)-1H-pyrazolo[4,3-b]pyridine], for which the half-maximal effective concentration (EC50) in assay [1] was determined as 52 nM; in assay [2], 68 nM; in the assay on SW480 colon cancer cells, 88 nM.

On to `c1cc2[nH]c(-c3n[nH]c4ccc(-c5cncc(OCCN6CCCC6)c5)nc34)cc2cn1` [Compound 658, 5-(5-(2-(Pyrrolidin-1-yl)ethoxy)pyridin-3-yl)-3-(1H-pyrrolo[3,2-c]pyridin-2-yl)-1H-pyrazolo[4,3-b]pyridine], for which the figures for the EC50 (in assay [1]; in assay [2]; with SW480 colon cancer cells) were 3910 nM, 4750 nM and 2070 nM, respectively.

Turning to `CC(C)CC(=O)Nc1cncc(-c2ccc3[nH]nc(-c4cc5c(-c6cc(F)cc(CNS(C)(=O)=O)c6)nccc5[nH]4)c3n2)c1` [Compound 478, N-(5-(3-(4-(3-Fluoro-5-(methylsulfonamidomethyl)phenyl)-1H-pyrrolo[3,2-c]pyridin-2-yl)-1H-pyrazolo[4,3-b]pyridin-5-yl)pyridin-3-yl)-3-methylbutanamide], the EC50 in assay [1] worked out at 624 nM; in assay [2], 5700 nM; in the assay with SW480 colon cancer cells it was 921 nM.

Regarding `O=C(CC1CCNCC1)Nc1cncc(-c2ccc3[nH]nc(-c4cc5c(N6CCCCC6)nccc5[nH]4)c3n2)c1` [Compound 609, N-(5-(3-(4-(Piperidin-1-yl)-1H-pyrrolo[3,2-c]pyridin-2-yl)-1H-pyrazolo[4,3-b]pyridin-5-yl)pyridin-3-yl)-2-(piperidin-4-yl)acetamide], the inhibition at 10 µM in assay [1] was determined as 13.3%; with SW480 colon cancer cells (given for EC50 >10 μM, 10 μM, read-out: percent inhibition at 10 μM) it was 9.7%. For the same compound, the EC50 in assay [1] was > 10000 nM; in assay [2], 1080 nM; with SW480 colon cancer cells, > 10000 nM.

As for `CS(=O)(=O)NCc1cc(F)cc(-c2nccc3[nH]c(-c4n[nH]c5ccc(-c6cncc(NC(=O)C7CCCCC7)c6)nc45)cc23)c1` [Compound 499, N-(5-(3-(4-(3-Fluoro-5-(methylsulfonamidomethyl)phenyl)-1H-pyrrolo[3,2-c]pyridin-2-yl)-1H-pyrazolo[4,3-b]pyridin-5-yl)pyridin-3-yl)cyclohexanecarboxamide], the values for the EC50 (in assay [1]; in assay [2]; in the assay on SW480 colon cancer cells) were 1140 nM, 958 nM and 1420 nM, respectively.

Consider `c1cc2[nH]c(-c3n[nH]c4ccc(-c5cncnc5)nc34)cc2cn1` [Compound 279, 5-(Pyrimidin-5-yl)-3-(1H-pyrrolo[3,2-c]pyridin-2-yl)-1H-pyrazolo[4,3-b]pyridine], for which the concentration giving a half-maximal response (EC50) was found to be 2350 nM in assay [1], 2570 nM in assay [2] and 1470 nM in the assay with SW480 colon cancer cells.
